Laboratory results taken from patent US7566733B2, “Benzimidazole derivatives useful as selective androgen receptor modulators (sarms)” (priority 2004, dated 2009).

Each compound was assayed on castrated male Sprague Dawley rats (assay: Ventral Prostate and Levator Ani Weight In Vivo Assay). Details: mature castrated rats, once daily for 14 days, oral gavage, 30 mg/kg.
Parameters: key: active: greater than or equal to 25% stimulation of levator ani at 30 mg/kg
Experimental: Ventral Prostate and Levator Ani Weight In Vivo Assay
Mature (150 to 200 g) castrated male Sprague Dawley rats (Charles River) were treated once daily for 14 days with test compound (usually administered by oral gavage at up to the desired dosage, up to 30 mg/kg in a volume of 1 mL, in 30% cyclodextrin or 0.5% methylcellulose vehicle), or with testosterone propionate (administered subcutaneously by injection at the nape of the neck at 5 mg/kg, in a volume of 0.1 mL in sesame oil), or with vehicle (1 mL of 30% cyclodextrin or 0.5% methylcellulose, given orally). On the fifteenth day, the rats were euthanized by asphyxiation in carbon dioxide. Ventral prostates and levator ani muscles were removed and their wet weights determined.
Test compound activity was determined as the percent stimulation of tissue weight, with the vehicle-treated control group set to zero percent and the testosterone alone-treated control group set to 100%. A compound was designated as “active” if it produced greater than or equal to 25% stimulation of levator ani at 30 mg/kg.

Row | SMILES | Activity (percent stimulation of levator ani weight)
1 | CC(O)(CC#N)c1nc2cc(Cl)c(Cl)cc2[nH]1 (stereo not shown) [Compound 7, 3-(5,6-dichloro-1H-benzoimidazol-2-yl)-3-hydroxy-butyronitrile] | active

These compounds were tested on castrated male Sprague Dawley rats (assay: Ventral Prostate and Seminal Vesicle Weight In Vivo Assay). Details: inhibition of testosterone-enhanced prostate weight; immature castrated rats, once daily for five days, usually orally 40 mg/kg, with testosterone propionate 2 mg/kg s.c.
Experimental: Ventral Prostate and Seminal Vesicle Weight In Vivo Assay; note: key: active: the non weight adjusted prostate weight was ≦40 mg or the % Inhibition prostate weight, body weight adjusted was ≧40%@2 mg/day dosage; inactive: did not meet the specified criteria defined above
Immature (approximately 50 g) castrated male Sprague Dawley rats (Charles River) were treated once daily for five days with test compound (usually given orally at 40 mg/kg in a volume of 0.3 mL, in 30% cyclodextrin or 0.5% methylcellulose vehicle) and with testosterone propionate (given subcutaneously by injection at the nape of the neck at 2 mg/kg, in a volume of 0.1 mL in sesame oil). On the sixth day, the rats were euthanized by asphyxiation in carbon dioxide. Ventral prosatates and seminal vesicles were removed and their wet weights determined. Test compound activity was determined as the percent inhibition of testosterone-enhanced tissue weights, with a vehicle-treated control group set to zero percent and a testosterone alone-treated control group set to 100%.
Representative compounds of the present invention were tested according to the procedure described, with results as listed in Table 7 below. A test compound is listed as “active” if the non weight adjusted prostate weight was ≦40 mg or the % Inhibition prostate weight, body weight adjusted was ≧40%@2 mg/day dosage. ID50's, if determined, of ≦15 mg/day also indicated an “active” compound.

Row | SMILES | Activity
2 | CC(O)(CC#N)c1nc2cc(Cl)c(Cl)cc2[nH]1 (stereo not shown) [Compound 7, 3-(5,6-dichloro-1H-benzoimidazol-2-yl)-3-hydroxy-butyronitrile] | active
3 | FC(F)(F)Cc1nc2cc(Cl)c(Cl)cc2n1Cc1cccc(OC(F)(F)F)c1 [Compound 134, 5,6-Dichloro-2-(2,2,2-trifluoro-ethyl)-1-(3-trifluoromethoxy-benzyl)-1H-benzoimidazole] | inactive
4 | N#Cc1cc2nc(C(O)C(F)(F)F)[nH]c2cc1C(F)(F)F (stereo not shown) [Compound 135, 2-(2,2,2-Trifluoro-1-hydroxy-ethyl)-6-trifluoromethyl-1H-benzoimdazole-5-carbonitrile] | inactive
5 | N#Cc1ccc(OCCn2c(CC(F)(F)F)nc3cc(Cl)c(Cl)cc32)cc1 [Compound 136, 4-{2-[5,6-Dichloro-2-(2,2,2-trifluoro-ethyl)-benzoimidazol-1-yl]-ethoxy}-benzonitrile] | active
6 | O=[N+]([O-])c1ccccc1Cn1c(CC(F)(F)F)nc2cc(Cl)c(Cl)cc21 [Compound 137, 5,6-Dichloro-1-(2-nitro-benzyl)-2-(2,2,2-trifluoro-ethyl)-1H-benzoimidazole] | active
7 | FC(F)(F)Cc1nc2cc(Cl)c(Cl)cc2n1Cc1ccc(-n2cccc2)cc1 [Compound 138, 5,6-Dichloro-1-(4-pyrrol-1-yl-benzyl)-2-(2,2,2-trifluoro-ethyl)-1H-benzoimidazole] | active
8 | O=[N+]([O-])c1cccc(Cn2c(CC(F)(F)F)nc3cc(Cl)c(Cl)cc32)c1 [Compound 139, 5,6-Dichloro-1-(3-nitro-benzyl)-2-(2,2,2-trifluoro-ethyl)-1H-benzoimidazole] | active
9 | FC(F)(F)Cc1nc2cc(Cl)c(Cl)cc2n1Cc1ccc(SC(F)(F)F)cc1 [Compound 140, 5,6-Dichloro-2-(2,2,2-trifluoro-ethyl)-1-(4-trifluoromethvlsulfanvl-benzvl)-1H-benzoimidazole] | inactive
10 | CS(=O)(=O)c1ccc(Cn2c(CC(F)(F)F)nc3cc(Cl)c(Cl)cc32)cc1 [Compound 142, 5,6-Dichloro-1-(4-methanesulfonyl-benzyl)-2-(2,2,2-trifluoro-ethyl)-1H-benzoimidazole] | inactive
11 | CC/C(Cn1c(CC(F)(F)F)nc2cc(Cl)c(Cl)cc21)=N/O [Compound 144, 1-[5,6-Dichloro-2-(2,2,2-trifluoro-ethyl)-benzoimidazol-1-yl]-butan-2-one Oxime] | active
12 | FC(F)(F)Cc1nc2cc(Cl)c(Cl)cc2n1Cc1ccc(OCc2ccccc2)cc1 [Compound 146, 1-(4-Benzyloxy-benzyl)-5,6-dichloro-2-(2,2,2-trifluoro-ethyl)-1H-benzoimidazole] | active
13 | COc1ccc(Cn2c(CC(F)(F)F)nc3cc(Cl)c(Cl)cc32)cc1 [Compound 147, 5,6-Dichloro-1-(4-methoxy-benzyl)-2-(2,2,2-trifluoro-ethyl)-1H-benzoimidazole] | active
14 | CCC(O)Cn1c(CC(F)(F)F)nc2cc(Cl)c(Cl)cc21 (stereo not shown) [Compound 148, 1-[5,6-Dichloro-2-(2,2,2-trifluoro-ethyl)-benzoimidazol-1-yl]-butan-2-ol] | active
15 | FC(F)(F)Cc1nc2cc(Cl)c(Cl)cc2n1Cc1ccc(Br)cc1 [Compound 149, 1-(4-Bromo-benzyl)-5,6-dichloro-2-(2,2,2-trifluoro-ethyl)-1H-benzoimidazole] | active
16 | CCOC(=O)c1ccc(Cn2c(CC(F)(F)F)nc3cc(Cl)c(Cl)cc32)cc1 [Compound 150, 4-[5,6-Dichloro-2-(2,2,2-trifluoro-ethyl)-benzoimidazol-1-ylmethyl]-benzoic Acid Ethyl Ester] | active
17 | FC(F)(F)Cc1nc2cc(Cl)c(Cl)cc2n1Cc1ccccc1Br [Compound 151, 1-(2-Bromo-benzyl)-5,6-dichloro-2-(2,2,2-trifluoro-ethyl)-1H-benzoimidazole] | active
18 | FC(c1nc2cc(Cl)c(Cl)cc2[nH]1)C(F)(F)F (stereo not shown) [Compound 152, 5,6-Dichloro-2-(1,2,22-tetrafluoro-ethyl)-1H-benzoimidazole] | active
19 | O=Cc1ccc(Cn2c(CC(F)(F)F)nc3cc(Cl)c(Cl)cc32)cc1 [Compound 153, 4-[5,6-Dichloro-2-(trifluoro-ethyl)-benzoimidazol-1-ylmethyl]-benzaldehyde] | inactive
20 | FC(F)(F)C(F)(F)c1nc2cc(Cl)c(Cl)cc2[nH]1 [Compound 154, 5,6-Dichloro-2-(pentafluoroethyl)-1H-benzoimidazole] | inactive
21 | O=[N+]([O-])c1cc2nc(C(O)C(F)(F)F)[nH]c2cc1[N+](=O)[O-] (stereo not shown) [Compound 155, 1-(5,6-Dinitro-1H-benzoimidazol-2-yl-)2,2,2-trifluoro-ethanol] | inactive
22 | OC(c1nc2cc(Cl)ccc2[nH]1)C(F)(F)F (stereo not shown) [Compound 156, 1-(5-1H-benzoimidazol-2-yl-)2,2,2-trifluoro-ethanol] | inactive
23 | COc1cc2nc(C(O)C(F)(F)F)[nH]c2cc1OC (stereo not shown) [Compound 157, 1-(5,6-Dimethoxy-1H-benzoimidazol-2-yl-)2,2,2-trifluoro-ethanol] | inactive
24 | O=C(c1nc2cc(Cl)c(F)cc2[nH]1)C(F)(F)F [Compound 159, 1-(5-Chloro-6-fluoro-1H-benzoimidazol-2-yl-)2,2,2-trifluoro-ethanone] | active
25 | Cc1cc2[nH]c(C(=O)C(F)(F)F)nc2cc1Cl [Compound 160, 1-(5-Chloro-6-methyl-1H-benzoimidazol-2-yl-)2,2,2-trifluoro-ethanone] | active
